Mass density data for eight molecules are collected here from the NIST ThermoML archive (doi:10.1016/j.fluid.2016.02.006).

Molecules are shown by their SMILES. Numbers after ± are expanded uncertainties.

For series [1] the following is noted: Liquid, Vibrating tube method.
Series [2] is described as follows: xn = mol fraction of the nth substance listed. The following applies: 101 kPa, Liquid, Vibrating tube method.

The term mass density denotes the mass of a sample divided by its volume. For the molecule `c1ccccc1` [benzene], the mass density in series [1] (298.15 K, 101.33 kPa) is given as 873.71 ± 2 kg/m3; in series [1] (308.15 K, 101 kPa) it was 862.98 ± 2 kg/m3; in series [1] (318.15 K, 101 kPa), 852.16 ± 2 kg/m3.

Regarding `c1ccccc1` [benzene] + CCCCCCCC, the mass density is reported as 862.98 ± 2 kg/m3 in series [2] (308.15 K, x2 = 0) and 852.16 ± 2 kg/m3 in series [2] (318.15 K, x2 = 0).

On to `CCCC[N+](C)(C)C.O=S(=O)([N-]S(=O)(=O)C(F)(F)F)C(F)(F)F` [butyltrimethylammonium bis(trifluoromethylsulfonyl)imide], for which the mass density in series [1] (298.15 K, 101.33 kPa) turned out to be 1392.99 ± 6 kg/m3.

As to `CCCCCCCCCC` [decane], in series [1] (298.15 K, 101.33 kPa), the mass density is 726.15 ± 2 kg/m3.

Turning to `CCCCCCCCCCCC` [dodecane], the mass density in series [1] (298.15 K, 101.33 kPa) was found to be 745.28 ± 2 kg/m3.

Consider `CCCCCCCC` [octane], for which the mass density is listed as 698.86 ± 2 kg/m3 in series [1] (298.15 K, 101.33 kPa); 690.72 ± 2 kg/m3 in series [1] (308.15 K, 101 kPa); 682.5 ± 2 kg/m3 in series [1] (318.15 K, 101 kPa).

Regarding `CCCCCCCC` [octane] + c1ccccc1, the mass density amounted to 832.4 ± 4.5 kg/m3 in series [2] (308.15 K, x1 = 0.0959); 806.43 ± 3.9 kg/m3 in series [2] (308.15 K, x1 = 0.1937); 781.74 ± 3.5 kg/m3 in series [2] (308.15 K, x1 = 0.3048); 762.04 ± 3.2 kg/m3 in series [2] (308.15 K, x1 = 0.41); 745.81 ± 2.9 kg/m3 in series [2] (308.15 K, x1 = 0.5097); 732.34 ± 2.7 kg/m3 in series [2] (308.15 K, x1 = 0.6058). For the same molecule, the mass density in series [2] (308.15 K, x1 = 0.711) turned out to be 719.36 ± 2.6 kg/m3; in series [2] (308.15 K, x1 = 0.8101), 708.42 ± 2.5 kg/m3; in series [2] (308.15 K, x1 = 0.9076) it was 698.91 ± 2.4 kg/m3; in series [2] (308.15 K, x1 = 1), 690.72 ± 2 kg/m3; in series [2] (318.15 K, x1 = 0.0988), 821.33 ± 4.4 kg/m3; in series [2] (318.15 K, x1 = 0.1982), 796.48 ± 3.9 kg/m3. The mass density in series [2] (318.15 K, x1 = 0.3072) stood at 771.56 ± 3.5 kg/m3; in series [2] (318.15 K, x1 = 0.407), 753.05 ± 3.1 kg/m3; in series [2] (318.15 K, x1 = 0.5096) it was 736.77 ± 2.9 kg/m3; in series [2] (318.15 K, x1 = 0.598) it was 724.35 ± 2.7 kg/m3; in series [2] (318.15 K, x1 = 0.7048) it was 711.47 ± 2.6 kg/m3; in series [2] (318.15 K, x1 = 0.8039) it was 700.49 ± 2.5 kg/m3. Also, the mass density in series [2] (318.15 K, x1 = 0.9005) came out at 691.19 ± 2.4 kg/m3; in series [2] (318.15 K, x1 = 1), 682.5 ± 2 kg/m3.

Turning to `CCCC[N+](C)(CCCC)CCCC.O=S(=O)([N-]S(=O)(=O)C(F)(F)F)C(F)(F)F` [tributylmethylammonium bis((trifluoromethyl)sulfonyl)imide], the mass density in series [1] (298.15 K, 101.33 kPa) was 1261.65 ± 6 kg/m3.
